As usually defined, the EC50 is the concentration at which the effect is half-maximal.

Read-outs that look alike come from different tables or passages of the source.

This passage reports EC50 results from patent publication US20100249071A1, “Modulators of S1P and Methods of Making And Using” (Exelixis, Inc., priority 2009, published 2010).

The target in assay [1] is T1, hS1P1R (hEdg1) membrane protein (Homo sapiens, UniProt P21453).
T1 construct: purchased Lonza
Briefly: hS1P1R GTPγS binding assay (Assay 3a). The assay is classed as biochemical. A digest of the protocol:
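Membranes (4 μg) expressing hS1P1R incubated 1 h at room temperature with 30 μM GDP, 0.1 nM [^35S]GTPγS, 0.25% fatty acid free BSA and serially diluted agonist in Tris-HCl pH 7.9/NaCl/MgCl2/EGTA buffer. Bound [^35S]GTPγS captured on WGA SPA beads (further 1 h) and counted.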
For orientation: GTPγS is a poorly hydrolysed GTP analogue; its binding reports G protein activation.

For another assay, the target named is T2, S1P1 (Homo sapiens, UniProt P21453).
T2 construct: host or cells: U2OS
Description: Tango β-arrestin recruitment assay in U2OS cells (Assay 2b). In kind it is cell-based. Particulars: read-out: Assay 2b EC50. The essentials: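 In this agonist-mode Tango assay, U2OS cells carrying S1P1 and the reporter were serum-starved 48 h, then exposed overnight at 37 °C to compound (10 points, 3-fold, top 1 μM, 1% DMSO). β-Lactamase F460/F530 ratio was normalized to 1 μM S1P, and EC50 was fitted.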
In general terms: Arrestin recruitment assays detect the binding of arrestin to an activated receptor.

For a further assay, the target named is T3, S1P3 (Homo sapiens, UniProt Q99500).
T3 construct: host or cells: HEK293 (transient transfection)
Briefly: S1P3 Tango β-arrestin recruitment assay in HEK293 cells (Assay 5). The assay is classed as cell-based. The essentials:
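HEK293 cells transiently expressing S1P3 fused via TEV-cleavable linker to tTA, with β-arrestin2–TEV, treated 16-18 h at 37 °C with compounds (top 10 μM, 10-point 3-fold, 1% DMSO). Luciferase reporter luminescence normalised to DMSO background and 5 μM S1P control as percent activity; EC50 from concentration-response curves.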

The target in assay [2] is T4, hS1PR5 (hEdg8) membrane protein (Homo sapiens, UniProt Q9H228).
T4 construct: expressed in transfected cells; host or cells: CHO
Briefly: hS1P5R GTPγS binding assay (Assay 4). In kind it is biochemical. A digest of the protocol: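 Membranes (5 μg) from CHO cells expressing hS1PR5, incubated 1 h at room temperature with 30 μM GDP, 0.1 nM [35S]GTPγS, 0.25% fatty acid free BSA and serially diluted compound in pH 7.9 Tris buffer with MgCl2. WGA SPA beads added for another 1 h, then bound [35S]GTPγS counted by scintillation.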

[3] abbreviates: * = rEC50 measured rather than EC50, read-out: Assay 5 rEC50 (relative EC50, cells marked *).

T4 sequence (Q9H228 whole entry): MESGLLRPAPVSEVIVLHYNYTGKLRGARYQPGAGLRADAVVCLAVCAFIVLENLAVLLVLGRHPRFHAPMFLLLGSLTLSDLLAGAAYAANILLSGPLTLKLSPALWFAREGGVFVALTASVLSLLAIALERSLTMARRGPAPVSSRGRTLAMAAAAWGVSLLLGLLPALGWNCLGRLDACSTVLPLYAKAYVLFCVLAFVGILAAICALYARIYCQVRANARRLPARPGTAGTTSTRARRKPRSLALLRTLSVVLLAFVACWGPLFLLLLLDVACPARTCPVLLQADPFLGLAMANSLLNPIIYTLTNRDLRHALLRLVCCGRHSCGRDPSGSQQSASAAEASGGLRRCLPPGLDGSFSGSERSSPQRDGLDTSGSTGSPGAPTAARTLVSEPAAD
T1 sequence (P21453 whole entry): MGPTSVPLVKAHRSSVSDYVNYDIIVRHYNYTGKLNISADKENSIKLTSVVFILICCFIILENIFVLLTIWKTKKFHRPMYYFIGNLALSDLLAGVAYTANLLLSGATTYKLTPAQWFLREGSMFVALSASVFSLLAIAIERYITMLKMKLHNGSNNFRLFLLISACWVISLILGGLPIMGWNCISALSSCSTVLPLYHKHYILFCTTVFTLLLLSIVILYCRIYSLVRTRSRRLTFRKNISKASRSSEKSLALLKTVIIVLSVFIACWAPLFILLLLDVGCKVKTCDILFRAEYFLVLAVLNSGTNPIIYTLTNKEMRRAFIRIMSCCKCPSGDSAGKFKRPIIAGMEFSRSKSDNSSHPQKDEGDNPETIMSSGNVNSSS
T3 sequence (P32121 whole entry): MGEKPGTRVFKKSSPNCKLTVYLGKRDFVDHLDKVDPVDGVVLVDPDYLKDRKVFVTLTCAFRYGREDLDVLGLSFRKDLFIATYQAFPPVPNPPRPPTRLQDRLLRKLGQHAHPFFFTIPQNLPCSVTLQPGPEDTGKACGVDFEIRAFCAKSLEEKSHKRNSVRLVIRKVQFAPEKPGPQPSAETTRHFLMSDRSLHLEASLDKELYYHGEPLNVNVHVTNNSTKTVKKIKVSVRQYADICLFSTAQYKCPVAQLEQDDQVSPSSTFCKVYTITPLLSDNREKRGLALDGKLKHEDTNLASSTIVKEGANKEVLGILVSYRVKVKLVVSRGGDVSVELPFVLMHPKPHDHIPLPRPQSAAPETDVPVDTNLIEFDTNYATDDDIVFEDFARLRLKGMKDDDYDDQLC
T3 sequence (Q99500 whole entry): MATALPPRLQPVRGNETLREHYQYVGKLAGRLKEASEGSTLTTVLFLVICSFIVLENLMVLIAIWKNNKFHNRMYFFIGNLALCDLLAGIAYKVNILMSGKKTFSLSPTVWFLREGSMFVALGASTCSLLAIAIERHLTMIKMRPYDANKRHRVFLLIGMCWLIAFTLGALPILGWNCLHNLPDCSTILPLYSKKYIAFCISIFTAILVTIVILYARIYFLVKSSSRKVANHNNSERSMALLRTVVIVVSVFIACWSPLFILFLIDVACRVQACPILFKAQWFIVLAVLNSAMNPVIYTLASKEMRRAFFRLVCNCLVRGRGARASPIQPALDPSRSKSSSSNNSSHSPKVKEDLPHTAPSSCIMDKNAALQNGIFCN
T2 sequence (P32121 whole entry): as the sequence (P32121 whole entry) above
T2 sequence (P21453 whole entry): as the sequence (P21453 whole entry) above

With `CCOc1ccc(-c2nnc(-c3cc(F)c(OC[C@H](N)CO)cc3Cl)s2)cc1Cl` [Entry 25, (2R)-2-amino-3-[(5-chloro-4-{5-[3-chloro-4-(ethyloxy)phenyl]-1,3,4-thiadiazol-2-yl}-2-fluorophenyl)oxy]propan-1-ol], the 50% effective concentration (EC50) in assay [1] is 10 to 50 nM; on S1P1, 10 to 50 nM; at S1P3 (read-out: Assay 5 EC50) it was over 10000 nM; in assay [2], 50 to 250 nM.
Regarding `CC(C)Oc1ccc(-c2nnc(-c3cc(F)c(OC[C@H](N)COP(=O)(O)O)cc3Cl)s2)cc1Br` [Entry 29, (2S)-2-amino-3-{[4-(5-{3-bromo-4-[(1-methylethyl)oxy]phenyl}-1,3,4-thiadiazol-2-yl)-5-chloro-2-fluorophenyl]oxy}propyl dihydrogen phosphate], the 50% effective concentration (EC50) in assay [1] was at most 10 nM; on S1P1 it was at most 10 nM; at S1P3 (read-out: Assay 5 EC50) it was at most 250 nM; in assay [2], at most 10 nM.
With `CC(C)Oc1ncc(-c2nnc(-c3cc(F)c(OC[C@@H](N)CO)cc3Cl)s2)cc1Cl` [Entry 32, (2S)-2-amino-3-{[5-chloro-4-(5-{5-chloro-6-[(1-methylethyl)oxy]pyridin-3-yl}-1,3,4-thiadiazol-2-yl)-2-fluorophenyl]oxy}propan-1-ol], the EC50 in assay [1] is 10 to 50 nM; on S1P1, at most 10 nM; at S1P3 (read-out: Assay 5 EC50) it was at most 250 nM; in assay [2], 250 to 2800 nM.
For `CC(C)Oc1ccc(-c2nnc(-c3cc(F)c(OC[C@H](N)CO)cc3Cl)s2)cn1` [Entry 35, (2R)-2-amino-3-{[5-chloro-2-fluoro-4-(5-{6-[(1-methylethyl)oxy]pyridin-3-yl}-1,3,4-thiadiazol-2-yl)phenyl]oxy}propan-1-ol] the same measures were 250 to 2800 nM, 50 to 250 nM, over 10000 nM and 250 to 2800 nM.
The matching figures for `CC(C)Oc1ccc(-c2nnc(-c3cc(F)c(OC[C@@H](N)CO)cc3Cl)s2)cn1` [Entry 38, (2S)-2-amino-3-{[5-chloro-2-fluoro-4-(5-{6-[(1-methylethyl)oxy]pyridin-3-yl}-1,3,4-thiadiazol-2-yl)phenyl]oxy}propan-1-ol]: 10 to 50 nM, at most 10 nM, at most 250 nM and 250 to 2800 nM.
In the case of `CC(C)Oc1ccc(-c2nnc(-c3cc(Cl)c(OC[C@H](N)CO)c(Cl)c3)s2)cc1Cl` [Entry 39, (2R)-2-amino-3-{[2,6-dichloro-4-(5-{3-chloro-4-[(1-methylethyl)oxy]phenyl}-1,3,4-thiadiazol-2-yl)phenyl]oxy}propan-1-ol], the EC50 is at most 10 nM in assay [1], 50 to 250 nM on S1P1, over 10000 nM at S1P3 (read-out: Assay 5 EC50) and 10 to 50 nM in assay [2].
The matching figures for `CC(C)Oc1ccc(-c2nnc(-c3cc(F)c(OC[C@H](N)CO)c(Cl)c3)s2)cc1Cl` [Entry 40, (2R)-2-amino-3-{[2-chloro-4-(5-{3-chloro-4-[(1-methylethyl)oxy]phenyl}-1,3,4-thiadiazol-2-yl)-6-fluorophenyl]oxy}propan-1-ol]: at most 10 nM, 10 to 50 nM, over 10000 nM and 10 to 50 nM.
The matching figures for `CC(C)N(C)c1cc(-c2nnc(-c3cc(F)c(OCC(N)CO)cc3Cl)s2)ccn1` (stereo not shown) [Entry 41, 2-amino-3-{[5-chloro-2-fluoro-4-(5-{2-[methyl(1-methylethyl)amino]pyridin-4-yl}-1,3,4-thiadiazol-2-yl)phenyl]oxy}propan-1-ol]: 250 to 2800 nM, at most 10 nM, over 10000 nM and over 10000 nM.
For `CC(C)Nc1ccc(-c2nnc(-c3cc(F)c(OC[C@H](N)CO)cc3Cl)s2)cc1Cl` [Entry 43, (2R)-2-amino-3-{[5-chloro-4-(5-{3-chloro-4-[(1-methylethyl)amino]phenyl}-1,3,4-thiadiazol-2-yl)-2-fluorophenyl]oxy}propan-1-ol], the EC50 in assay [1] was at most 10 nM; at S1P1, 50 to 250 nM; at S1P3 (read-out: Assay 5 EC50), over 10000 nM; in assay [2], 10 to 50 nM.
`CC(C)Nc1ccc(-c2nnc(-c3cc(F)c(OC[C@@H](N)CO)cc3Cl)s2)cc1Cl` [Entry 45, (2S)-2-amino-3-{[5-chloro-4-(5-{3-chloro-4-[(1-methylethyl)amino]phenyl}-1,3,4-thiadiazol-2-yl)-2-fluorophenyl]oxy}propan-1-ol]: the EC50 in assay [1] is at most 10 nM; on S1P1 it was at most 10 nM; on S1P3 (setting [3]), over 250 nM; in assay [2], 10 to 50 nM.
Consider `CC(C)Nc1ccc(-c2nnc(-c3cc(F)c(OC[C@H](N)[C@@H](C)O)cc3Cl)s2)cn1` [Entry 46, (2R,3S)-3-amino-4-{[5-chloro-2-fluoro-4-(5-{6-[(1-methylethyl)amino]pyridin-3-yl}-1,3,4-thiadiazol-2-yl)phenyl]oxy}butan-2-ol], for which the EC50 was 250 to 2800 nM in assay [1], 10 to 50 nM at S1P1, over 10000 nM on S1P3 (read-out: Assay 5 EC50) and 250 to 2800 nM in assay [2].
As for `CC(C)Nc1ccc(-c2nnc(-c3cc(F)c(OC[C@@H](N)COP(=O)(O)O)cc3Cl)s2)cn1` [Entry 47, (2R)-2-amino-3-{[5-chloro-2-fluoro-4-(5-{6-[(1-methylethyl)amino]pyridin-3-yl}-1,3,4-thiadiazol-2-yl)phenyl]oxy}propyl dihydrogen phosphate], the concentration giving a half-maximal response (EC50) in assay [1] was at most 10 nM; on S1P1, at most 10 nM; at S1P3 (read-out: Assay 5 EC50), at most 250 nM; in assay [2], at most 10 nM.
On to `CC(C)Nc1ncc(-c2nnc(-c3cc(F)c(OC[C@H](N)[C@@H](C)O)cc3Cl)s2)cc1Cl` [Entry 48, (2R,3S)-3-amino-4-{[5-chloro-4-(5-{5-chloro-6-[(1-methylethyl)amino]pyridin-3-yl}-1,3,4-thiadiazol-2-yl)-2-fluorophenyl]oxy}butan-2-ol], for which the EC50 in assay [1] was 10 to 50 nM; at S1P1 it was at most 10 nM; on S1P3 (read-out: Assay 5 EC50) it was over 10000 nM; in assay [2], 250 to 2800 nM.
The matching figures for `N#Cc1cc(-c2nnc(-c3cc(F)c(OC[C@H](N)CO)cc3Cl)s2)ccc1OC1COC1` [Entry 49, 5-[5-(4-{[(2R)-2-amino-3-hydroxypropyl]oxy}-2-chloro-5-fluorophenyl)-1,3,4-thiadiazol-2-yl]-2-(oxetan-3-yloxy)benzonitrile]: at most 10 nM, at most 10 nM, over 10000 nM and 50 to 250 nM.
The matching figures for `CC(C)Oc1ccc(-c2nnc(-c3cc(F)c(OC[C@H](N)[C@@H](C)OP(=O)(O)O)cc3Cl)s2)cc1C#N` [Entry 50, (1R,2S)-2-amino-3-{[5-chloro-4-(5-{3-cyano-4-[(1-methylethyl)oxy]phenyl}-1,3,4-thiadiazol-2-yl)-2-fluorophenyl]oxy}-1-methylpropyl dihydrogen phosphate]: at most 10 nM, at most 10 nM, at most 250 nM and at most 10 nM.
For `CC(C)Oc1ccc(-c2nnc(-c3cc(F)c(OC[C@H](N)[C@@H](C)OP(=O)(O)O)cc3Cl)s2)cc1Cl` [Entry 51, (1R,2S)-2-amino-3-{[5-chloro-4-(5-{3-chloro-4-[(1-methylethyl)oxy]phenyl}-1,3,4-thiadiazol-2-yl)-2-fluorophenyl]oxy}-1-methylpropyl dihydrogen phosphate] the same measures were at most 10 nM, at most 10 nM, at most 250 nM and at most 10 nM.
Take `CC(C)Nc1ccc(-c2nnc(-c3cc(F)c(OC[C@H](N)COP(=O)(O)O)cc3Cl)s2)cn1` [Entry 52, (2S)-2-amino-3-{[5-chloro-2-fluoro-4-(5-{6-[(1-methylethyl)amino]pyridin-3-yl}-1,3,4-thiadiazol-2-yl)phenyl]oxy}propyl dihydrogen phosphate]: the EC50 is at most 10 nM in assay [1], at most 10 nM at S1P1, over 250 nM at S1P3 (setting [3]) and at most 10 nM in assay [2].
As to `CC(C)Oc1ccc(-c2nnc(-c3cc(F)c(OC[C@H](N)[C@H](C)OP(=O)(O)O)cc3Cl)s2)cc1C#N` [Entry 53, (1S,2S)-2-amino-3-{[5-chloro-4-(5-{3-cyano-4-[(1-methylethyl)oxy]phenyl}-1,3,4-thiadiazol-2-yl)-2-fluorophenyl]oxy}-1-methylpropyl dihydrogen phosphate], the half-maximal effective concentration (EC50) in assay [1] was at most 10 nM; at S1P1, at most 10 nM; at S1P3 (read-out: Assay 5 EC50) it was over 10000 nM; in assay [2] it was at most 10 nM.
Regarding `CC(C)Nc1ccc(-c2nnc(-c3cc(F)c(OC[C@H](N)[C@H](C)OP(=O)(O)O)cc3Cl)s2)cn1` [Entry 54, (1S,2S)-2-amino-3-{[5-chloro-2-fluoro-4-(5-{6-[(1-methylethyl)amino]pyridin-3-yl}-1,3,4-thiadiazol-2-yl)phenyl]oxy}-1-methylpropyl dihydrogen phosphate], the EC50 is at most 10 nM in assay [1], at most 10 nM on S1P1, over 250 nM on S1P3 (read-out: Assay 5 EC50) and 10 to 50 nM in assay [2].
